# Source: patent US11958887B2, “Gene therapy for tuberous sclerosis” (The General Hospital Corporation, priority 2017, dated 2024)
# Tested on: Tsc2^c/c mice injected ICV with AAV1-CBA-Cre
# Experiment: Survival of Tsc2^c/c mice lacking tuberin (AAV1-CBA-Cre ICV) after treatment
# Type: in vivo
# Settings: AAV1-CBA-Cre ICV at P0; no cTuberin vector; vigabatrin 200 mg/kg
# Experimental: Experimental research protocols were approved by the Institutional Animal Care and Use Committee (IACUC) for the Massachusetts General Hospital (MGH) following the guidelines of the National Institutes of Health for the Care and Use of Laboratory Animals. Experiments were performed on Tsc2^c/c floxed mice (Onda et al., J. Clin. Invest. 104(6):687-695, 1999). In response to Cre recombinase, the Tsc2^c/c alleles are converted to null alleles, and the lacZallele expresses β-galactosidase. These mice have a normal, healthy lifespan.
# For vector injections, on the day of birth (postnatal day 0 (P0)) or on P3, neonates were cryo-anesthetized and injected with 1 μl or 2 μl of viral vector AAV1-CBA-Cre into each cerebral lateral ventricle with a glass micropipette ([…] diameter at the tip) using a Narishige® IM300 microinjector at a rate of 2.4 psi/sec (Narshige International, East Meadow, NY). Mice were then placed on a warming pad and returned to their mothers after regaining normal color and full activity typical of newborn mice.
# At 3 weeks of age (P21) mice were anesthetized by isoflurane inhalation (3.5% isoflurane in an induction chamber, then maintained anesthetized with 2-3% isoflurane and 1-2 liter/min oxygen for the duration of the experiment). […]
smiles,measurement,value
C=CC(N)CCC(=O)O (stereo not shown) [vigabatrin],median survival,27 days
